Paper PMC4844700, “Rifampin phosphotransferase is an unusual antibiotic resistance kinase” (Nature Communications, 2016)

How the values were obtained:
[1] = target: T1, RPH-Lm (rifampin phosphotransferase) (Listeria monocytogenes, UniProt A0A0X1KHF9); assay: SAXS, ensemble optimization; format: binding; conditions: Mg2+; 20 mM Hepes pH 7.5, 100 mM KCl; 10 °C; 10-fold molar excess; non-hydrolysable ATP analogue
T1 construct: full-length from E. coli; crystals and SAXS: His6-tag removed by TEV (pMCSG53 for crystals); kinetics: pET19Tb:rph-Lm; monomer; ATP-grasp 1-314, RIF-BD 327-754, swivel 767-865, catalytic His825
T1 sequence (A0A0X1KHF9 whole entry): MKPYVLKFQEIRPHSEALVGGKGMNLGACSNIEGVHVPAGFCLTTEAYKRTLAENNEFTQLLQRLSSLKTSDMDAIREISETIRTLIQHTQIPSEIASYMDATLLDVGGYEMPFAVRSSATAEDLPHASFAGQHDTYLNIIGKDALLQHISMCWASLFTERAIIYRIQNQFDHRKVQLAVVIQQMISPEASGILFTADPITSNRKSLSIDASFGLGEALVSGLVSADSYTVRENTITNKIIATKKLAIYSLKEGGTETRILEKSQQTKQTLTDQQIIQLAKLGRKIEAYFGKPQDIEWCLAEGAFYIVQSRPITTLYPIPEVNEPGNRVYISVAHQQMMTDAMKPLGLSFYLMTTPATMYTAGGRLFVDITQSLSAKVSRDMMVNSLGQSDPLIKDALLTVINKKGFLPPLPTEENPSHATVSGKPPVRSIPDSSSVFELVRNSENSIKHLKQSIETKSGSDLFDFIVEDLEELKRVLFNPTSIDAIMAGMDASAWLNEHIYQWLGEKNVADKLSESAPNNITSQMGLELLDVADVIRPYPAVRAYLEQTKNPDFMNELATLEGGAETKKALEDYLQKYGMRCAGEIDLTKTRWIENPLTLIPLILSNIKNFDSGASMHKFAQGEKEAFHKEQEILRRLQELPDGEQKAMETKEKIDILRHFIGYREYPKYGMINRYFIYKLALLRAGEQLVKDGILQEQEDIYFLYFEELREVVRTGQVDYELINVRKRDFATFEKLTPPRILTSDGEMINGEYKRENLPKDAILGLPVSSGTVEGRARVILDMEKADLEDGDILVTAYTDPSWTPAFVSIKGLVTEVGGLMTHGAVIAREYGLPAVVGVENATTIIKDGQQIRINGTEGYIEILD

[2] = target: T1, RPH-Lm (rifampin phosphotransferase); assay: X-ray crystallography; conditions: crystallized with 5 mM RIF and 5 mM ATP; RIF-binding domain; 2.85 Å
[3] = target: T1, RPH-Lm (rifampin phosphotransferase); assay: X-ray crystallography (SAD); conditions: Se-Met protein; 5 mM RIF; pH 6; RIF-binding domain; 2.70 Å
[4] = tested on: CO[C@H]1/C=C/O[C@@]2(C)Oc3c(C)c(O)c4c(O)c(c(/C=N/N5CCN(C)CC5)c(O)c4c3C2=O)NC(=O)/C(C)=C\C=C\[C@H](C)[C@H](O)[C@@H](C)[C@@H](O)[C@@H](C)[C@H](OC(C)=O)[C@@H]1C; assay: purified protein; conditions: ATP at five times its Km, 50 mM Hepes pH 7.5, 5 mM MgCl2, 40 mM NH4Cl, 25 °C, 11.3 μM enzyme

Nc1ncnc2c1ncn2[C@@H]1O[C@H](COP(=O)(O)OP(=O)(O)NP(=O)(O)O)[C@@H](O)[C@H]1O [AMP-PnP]
SAXS, ensemble optimization [1]: RPH-Lm bound to either analogue showed an increase in the ATP-grasp engaged population

Nc1ncnc2c1ncn2[C@@H]1O[C@H](COP(=O)(O)CP(=O)(O)OP(=O)(O)O)[C@@H](O)[C@H]1O [AMP-cPP]
SAXS, ensemble optimization [1]: RPH-Lm bound to either analogue showed an increase in the ATP-grasp engaged population

CO[C@H]1/C=C/O[C@@]2(C)Oc3c(C)c(O)c4c(O)c(c(/C=N/N5CCN(C)CC5)c(O)c4c3C2=O)NC(=O)/C(C)=C\C=C\[C@H](C)[C@H](OP(=O)(O)O)[C@@H](C)[C@@H](O)[C@@H](C)[C@H](OC(C)=O)[C@@H]1C [RIF-P]
X-ray crystallography [2]: 5FBU (RPH-Lm·RIF-P)

CO[C@H]1/C=C/O[C@@]2(C)Oc3c(C)c(O)c4c(O)c(c(/C=N/N5CCN(C)CC5)c(O)c4c3C2=O)NC(=O)/C(C)=C\C=C\[C@H](C)[C@H](O)[C@@H](C)[C@@H](O)[C@@H](C)[C@H](OC(C)=O)[C@@H]1C [RIF]
X-ray crystallography (SAD) [3]: 5FBT (RPH-Lm·RIF)

RPH-Lm (rifampin phosphotransferase) (Listeria monocytogenes serotype 4b str. F2365)
Km [4]: 0.57 ± 0.15 µM
kcat [4]: 2.25 ± 0.17 s⁻¹
kcat/Km [4]: 3.94e+06 M⁻¹ s⁻¹
